# System: human (tumor) Hif2α (EPAS1) mRNA
# Assay: Hif2α knockdown in orthotopic RCC tumor bearing mice, single injection of RNAi trigger-delivery polymer conjugate, RT-qPCR (Table 7)
# Assay type: in vivo
# Conditions: RNAi trigger 80 μg, polymer 126 400 μg; single tail vein injection; relative to isotonic glucose
# Method: A pCR3.1 expression vector expressing the reporter gene secreted alkaline phosphatase (SEAP) under the CMV promoter was prepared by directional cloning of the SEAP coding sequence PCR amplified from Clontech's pSEAP2-basic vector. Convenient restriction sites were added onto primers used to amplify the SEAP coding sequence for cloning into the pCR3.1 vector (Invitrogen). The resultant construct pCR3-SEAP was used to create a SEAP-expressing A498 ccRCC cell line. Briefly, pCR3-SEAP plasmid was transfected into A498 ccRCC cells by electroporation following manufacturer's recommendation. Stable transfectants were selected by G418 resistance. Selected A498-SEAP clones were evaluated for SEAP expression and integration stability.
# Female athymic nude mice were anesthetized with ˜3% isoflourane and placed in the right lateral decubitus position. A small, 0.5-1 cm, longitudinally abdominal incision in the left flank was made. Using a moist cotton swab, the left kidney was lifted out of the peritoneum and gently stabilized. Just before injection, a 1.0 ml syringe was filled with the cell/Matrigel mixture and a 27 gauge needle catheter was attached to the syringe tip. The filled syringe was then attached to a syringe pump (Harvard Apparatus, model PHD2000) and primed to remove air. The tip of a 27-gauge needle catheter attached to a syringe was inserted just below the renal capsule near the caudal pole and the tip of the needle was then carefully advanced cranially along the capsule 3-4 mm. A 10 μl aliquot of 2:1 (vol:vol) cell/matrigel mixture containing about 300,000 cells was slowly injected into the kidney parenchyma using a syringe pump. The needle was left in the kidney for 15-20 seconds to ensure the injection was complete. The needle was then removed from the kidney and a cotton swab was placed over the injection site for 30 seconds to prevent leakage of the cells or bleeding. The kidney was then gently placed back into the abdomen and the abdominal wall was closed. Serum was collected every 7-14 days after implantation to monitor tumor growth using a commercial SEAP assay kit. For most studies, tumor mice were used 5-6 weeks after implantation, when tumor measurements were typically around 4-8 mm.
# RGD targeted HiF2α-RNAi trigger delivery conjugates. Delivery polymers were modified using RGD-PEG-HyNic, RGD-PEG-ACit-PNP, or RDG-PEG-FCitFP-TFP and PEG-dipeptide modifying agents. The indicated amount of polymer 126 or 100A polymer was modified with 8×PEG12-ACit-PABC-PNP/0.5× aldehyde-PEG24-FCit-PABC-PNP (with RGD mimic #1-PEG-HyNic using protocol #1) and the indicated amount of the indicated Hif2α RNAi trigger. Polymer 064 was modified according to protocol 7. Kidney RCC tumor-bearing mice were generated as described and treated with a single tail vein injection of isotonic glucose (G1) or the indicated Hif2α RNAi trigger-delivery polymer conjugate. Mice were euthanized at the indicated time after injection and total RNA was prepared from kidney tumor using Trizol reagent following manufacturer's recommendation. Relative HiF2α mRNA levels were determined by RT-qPCR as described below and compared to mice treated with delivery buffer (isotonic glucose) only.
# In preparation for quantitative PCR, total RNA was isolated from tissue samples homogenized in TriReagent (Molecular Research Center, Cincinnati, Ohio) following the manufacturer's protocol. Approximately 500 ng RNA was reverse-transcribed using the High Capacity cDNA Reverse Transcription Kit (Life Technologies). For human (tumor) Hif2α (EPAS1) expression, pre-manufactured TaqMan gene expression assays for human Hif2α (Catalog #4331182) and CycA (PPIA) Catalog #: 4326316E) were used in biplex reactions in triplicate using TaqMan Gene Expression Master Mix (Life Technologies) or VeriQuest Probe Master Mix (Affymetrix). […]
row,Substance,Relative Expression day 4 (Hif2α mRNA in kidney tumor)
1,"AD01030 (antisense TUUCAUGAAAUCGUUACGUTT; sense ACGUAACGAUUUCAUGAAAT; Hif2alpha RNAi agent antisense strand; modified_base 2,4,6,8,10,12,14,16,18 /mod_base = “2′-deoxy-2′-fluoro corresponding nucleoside”; modified_base 3,5,9,11,13,15,17,19 /mod_base = “2′-O-methyl corresponding nucleoside”; modified_base 7 /mod_base = “2′-3′ seco corresponding nucleotide”; modified_base 21 /mod_base = “5′-phosphorothioate corresponding nucleotide”; Hif2alpha RNAi agent sense strand; modified_base 1,3,5,7,9,11,13,15,17,19 /mod_base = “2′-deoxy-2′-fluoro corresponding nucleoside”; modified_base 2,4,6,8,10,12,14,16,18 /mod_base = “2′-O-methyl corresponding nucleoside”; modified_b)",0.47
2,"AD01032 (antisense TAAGUUAAGCUCCCAUACATT; sense UGUAUGGGAGCUUAACUUAT; Hif2alpha RNAi agent antisense strand; modified_base 2,4,8,10,12,14,16,18 /mod_base = “2′-deoxy-2′-fluoro corresponding nucleoside”; modified_base 3,5,7,9,11,13,15,17,19 /mod_base = “2′-O-methyl corresponding nucleoside”; modified_base 6 /mod_base = “2′-3′ seco corresponding nucleotide”; modified_base 21 /mod_base = “5′-phosphorothioate corresponding nucleotide”; Hif2alpha RNAi agent sense strand; modified_base 1,3,5,7,9,11,13,15,17,19 /mod_base = “2′-deoxy-2′-fluoro corresponding nucleoside”; modified_base 2,4,6,8,10,12,14,16,18 /mod_base = “2′-O-methyl corresponding nucleoside”; modified_b)",1.00
3,"AD01033 (antisense TAAGUUAAGCUCCCAUACATT; sense UGUAUGGGAGCUUAACUUAT; Hif2alpha RNAi agent antisense strand; modified_base 2,4,6,8,10,12,14,16,18 /mod_base = “2′-deoxy-2′-fluoro corresponding nucleoside”; modified_base 3,5,9,11,13,15,17,19 /mod_base = “2′-O-methyl corresponding nucleoside”; modified_base 7 /mod_base = “2′-3′ seco corresponding nucleotide”; modified_base 21 /mod_base = “5′-phosphorothioate corresponding nucleotide”; Hif2alpha RNAi agent sense strand; modified_base 1,3,5,7,9,11,13,15,17,19 /mod_base = “2′-deoxy-2′-fluoro corresponding nucleoside”; modified_base 2,4,6,8,10,12,14,16,18 /mod_base = “2′-O-methyl corresponding nucleoside”; modified_b)",1.08
4,"AD01034 (antisense TAAGUUAAGCUCCCAUACATT; sense UGUAUGGGAGCUUAACUUAT; Hif2alpha RNAi agent antisense strand; modified_base 2,4,6,8,10,12,14,16,18 /mod_base = “2′-deoxy-2′-fluoro corresponding nucleoside”; modified_base 3,5,7,9,11,13,15,17,19 /mod_base = “2′-O-methyl corresponding nucleoside”; modified_base 21 /mod_base = “5′-phosphorothioate corresponding nucleotide”; Hif2alpha RNAi agent sense strand; modified_base 1,3,5,7,9,11,13,15,17,19 /mod_base = “2′-deoxy-2′-fluoro corresponding nucleoside”; modified_base 2,4,6,8,10,12,14,16,18 /mod_base = “2′-O-methyl corresponding nucleoside”; modified_base 20 /mod_base = “3′-3′-linked nucleotide”; modified_base 1 /mo)",0.35
5,"AD01255 (antisense TUUCAUGAAAUCGUUACGUTT; sense UAUACGUAACGAUUUCAUGAAAT; Hif2alpha RNAi agent antisense strand; modified_base 2,4,6,8,10,12,14,16,18 /mod_base = “2′-deoxy-2′-fluoro corresponding nucleoside”; modified_base 3,5,7,9,11,13,15,17,19 /mod_base = “2′-O-methyl corresponding nucleoside”; modified_base 21 /mod_base = “5′-phosphorothioate corresponding nucleotide”; Hif2alpha RNAi agent sense strand; modified_base 2 modified base = “2′-hydroxy corresponding nucleoside”; modified_base 4,6,8,10,12,14,16,18,20,22 /mod_base = “2′-deoxy-2′-fluoro corresponding nucleoside”; modified_base 1,3,5,7,9,11,13,15,17,19,21 /mod_base = “2′-O-methyl correspondin g nucleosid)",0.28
6,"AD01256 (antisense TUUCAUGAAAUCGUUACGUTT; sense ACGUAACGAUUUCAUGAAAT; Hif2alpha RNAi agent antisense strand; modified_base 2,4,6,10,12,14,16,18 /mod_base = “2′-deoxy-2′-fluoro corresponding nucleoside”; modified_base 3,5,7,9,11,13,15,17,19 /mod_base = “2′-O-methyl corresponding nucleoside”; modified_base 8 /mod_base = “2′-3′ seco corresponding nucleotide”; modified_base 21 /mod_base = “5′-phosphorothioate corresponding nucleotide”; Hif2alpha RNAi agent sense strand; modified_base 1,3,5,7,9,11,13,15,17,19 /mod_base = “2′-deoxy-2′-fluoro corresponding nucleoside”; modified_base 2,4,6,8,10,12,14,16,18 /mod_base = “2′-O-methyl corresponding nucleoside”; modified_b)",0.22
7,"AD01257 (antisense TUUCAUGAAAUCGUUACGUTT; sense ACGUAACGAUUUCAUGAAAT; Hif2alpha RNAi agent antisense strand; modified_base 2,4,6,8,10,12,14,16,18 /mod_base = “2′-deoxy-2′-fluoro corresponding nucleoside”; modified_base 3,5,7,11,13,15,17,19 /mod_base = “2′-O-methyl corresponding nucleoside”; modified_base 9 /mod_base = “2′-3′ seco corresponding nucleotide”; modified_base 21 /mod_base = “5′-phosphorothioate corresponding nucleotide”; Hif2alpha RNAi agent sense strand; modified_base 1,3,5,7,9,11,13,15,17,19 /mod_base = “2′-deoxy-2′-fluoro corresponding nucleoside”; modified_base 2,4,6,8,10,12,14,16,18 /mod_base = “2′-O-methyl corresponding nucleoside”; modified_b)",0.24
